# Test results reported in US20260097049A1, “C[…] AND METHODS OF USE FOR TREATMENT AND PREVENTION OF CANCER” (BlackStone Therapeutics, LLC, priority 2022, published 2026).
# Columns and labels:
# MiaPaCA-2 = assay: CellTiterGlo cell viability, MiaPaCA-2 cells; type: cell-based; conditions: Homo sapiens, MIA PaCa-2, 72 h
# Experimental: (§1) The IC50 values for (R)-H4CBD, (S)-H4CBD, H4CBDV racemic mixture, and bortezomib were determined. Compound treatment of cells started one day after seeding with a final DMSO concentration of 0.1% and was performed by nanodrop-dispensing using a Tecan Dispenser. 0.1% DMSO (solvent) and Staurosporine (1,0E-05M) served as high control (100% viability) and low control (0% viability), respectively. For the assays, cells were seeded in white cell culture-treated flat and clear bottom multiwell plates and incubated at 37° C. overnight before compounds were added. After incubation for 72 h at 37° C. at 5% or 10% CO2 dependent on the medium, cell plates were equilibrated to room temperature for one hour, CellTiterGlo reagent (Promega) was added and luminescence was measured approximately an hour later using a luminometer.
# (§2) Raw data were converted into percent cell viability relative to the high and low control, which were set to 100% and 0%, respectively. IC50 calculation was performed using GraphPad Prism software with a variable slope sigmoidal response fitting model using 0% viability as bottom constraint and 100% viability as top constraint. IC50 results in PANC-1, MIA-PaCa2, and AsPC-1 cells for (R)-H4CBD, (S)-H4CBD, H4CBDV racemic mixture, and bortezomib are shown in FIGS. 10-12 and Table 2
# PANC-1 = assay: CellTiterGlo cell viability, PANC-1 cells; type: cell-based; conditions: Homo sapiens, 72 h
# Experimental: as §1, §2
# [1] = tested on: A549 Lung Carcinoma Epithelial Cells (CCL-185 from ATCC); assay: Percent viability of lung carcinoma cells; type: cell-based; conditions: Homo sapiens, A549, read-out: Percent viability of cells, Mean (%)
# Experimental: GR-X1=H4CBDV, GR-X2=(R)-H4CBD, GR-X3=(S)-H4CBD, GR-X4=HHC.
# The IC50 of the hydrogenated cannabivarin, hexahydrocannabidivarin (H4CBDV), (R)-H4CBD, (S)-H4CBD, HHC racemic mixture, and gemcitabine, paclitaxel, and 5-fluorouracil were determined in lung carcinoma cells (A549 Lung Carcinoma Epithelial Cells (CCL-185 from ATCC)) as shown in FIGS. 39-43 and Table 3.
# MiaPaca cells xenograft = assay: Miapaca cell xenograft study; type: in vivo, SCID mice
# Experimental: Animal housing and environment: Female SCID mice will be housed in individually ventilated cages in a controlled environment (temperature 22±2° C., humidity 30-70%, and 12 h light/12 h dark cycle). Acclimatization of animals: Mice will be acclimated for 2-4 days. For the study, the required number of SCID mice will be allocated and housed separately in the experimental area. Food and water for animals: The mice will have access to commercially available sterile feed pellets and sterile potable water ad libitum. Identification of animals: 4 mice will be housed per individually ventilated cage. Each animal in the cage will be identified by ear punch. These cages will be numbered thus making the animal identification easy. Ethical approvals: All animal experiments will be carried out in accordance with the guidelines of the guide for animal welfare and with the approval of the IACUC WSU. Population per group: 9 mice per group (6 for efficacy and 3 for residual tumor analysis).
# Miapaca cells were xenograft into the mice. 7 days after transplantation, the mice were untreated (administered a vehicle control), administered CCL-104 intravenously (15.4 mg/kg) or orally (31 mg/kg), or administered CCL-106, intravenously (20 mg/kg) or orally (31 mg/kg). At necropsy, tumors were excised for IHC, immunoblotting and RNA isolation for suppression proliferation related signaling molecules.
smiles,measurement,setting,value
"CCCc1cc(O)c(C2CC(C)CCC2C(C)C)c(O)c1 (racemic) [CCL-106, hexahydrocannabidivarin]",IC50,MiaPaCA-2,530 nM
same,IC50,PANC-1,789 nM
same,viability at 1.56 µM,[1]; agent concentration 1.56 uM,92.1%
same,viability at 3.12 µM,[1]; agent concentration 3.12 uM,95.2%
same,viability at 6.25 µM,[1]; agent concentration 6.25 uM,93.4%
same,viability at 12.5 µM,[1]; agent concentration 12.5 uM,93.6%
same,viability at 25 µM,[1]; agent concentration 25 uM,21.5%
same,viability at 50 µM,[1]; agent concentration 50 uM,5.65%
same,reduction of final tumor weight (dot graph),MiaPaca cells xenograft; IV 20 mg/kg,27.0%
same,reduction of mean of the final tumor weight (bar graph),MiaPaca cells xenograft; IV 20 mg/kg,24.2%
same,reduction of final tumor weight (dot graph),MiaPaca cells xenograft; PO 31 mg/kg,50.8%
same,reduction of mean of the final tumor weight (bar graph),MiaPaca cells xenograft; PO 31 mg/kg,50.79%
same,tumor size compared to the untreated control,"MiaPaca cells xenograft; treated intravenously or orally, FIGS. 54-55",smaller tumors compared to the untreated control
